Measured values published in patent publication US8937077B2, “Bicyclic diamines as janus kinase inhibitors” (Merck Sharp & Dohme Corp., priority 2010, dated 2015).

The compounds below were run against T1, Jak1 (Homo sapiens, UniProt P23458) (assay: Jak Biochemical HTRF Assay (Jak1)). Conditions: IC50 class, recombinant GST-tagged catalytic domain, read-out: Jak1 activity.
T1 construct: using a recombinant purified GST-tagged catalytic domain for each enzyme; GST; purchased Invitrogen M4290
Outline: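 Recombinant GST-tagged Jak1 catalytic domain was preincubated with compound and peptide substrate for 30 min at room temperature, and the reaction was then started with ATP and run 120 min. Buffer contained 2 mM DTT and 0.05% BSA. Read-out was HTRF (665/615 nm) with Eu-pY20 antibody and streptavidin-Dylight, and IC50 values came from 4-parameter fits of percent inhibition.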

T1 sequence (P23458 875-1153 limits assumed): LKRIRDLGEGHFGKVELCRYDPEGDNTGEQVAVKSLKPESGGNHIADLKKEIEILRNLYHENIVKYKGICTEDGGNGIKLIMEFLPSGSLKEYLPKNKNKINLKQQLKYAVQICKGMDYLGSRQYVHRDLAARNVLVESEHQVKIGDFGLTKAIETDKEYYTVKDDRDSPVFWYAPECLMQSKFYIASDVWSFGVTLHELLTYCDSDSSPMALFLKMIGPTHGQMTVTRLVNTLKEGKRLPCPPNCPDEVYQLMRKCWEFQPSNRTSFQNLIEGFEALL

IC50 [nM]	Structure (SMILES)
100 to 1000	O=C1CCCN1CCOC(=O)N1CCC[C@@H]2[C@H]1CCN2c1ncnc2[nH]ccc12 [Example 3-36, 2-(2-oxopyrrolidin-1-yl)ethyl (3aR,7aR)-1-(7H-pyrrolo[2,3-d]pyrimidin-4-yl)octahydro-4H-pyrrolo[3,2-b]pyridine-4-carboxylate]
10 to 100	O=C(OC1Cc2ccccc2C1)N1CCCC2C1CCN2c1ncnc2[nH]ccc12 (stereo not shown) [Example 3-11, 2,3-dihydro-1H-inden-2-yl 1-(7H-pyrrolo[2,3-d]pyrimidin-4-yl)octahydro-4H-pyrrolo[3,2-b]pyridine-4-carboxylate]
10 to 100	COCCOC(=O)N1CCC[C@@H]2[C@H]1CCN2c1ncnc2[nH]ccc12 (single isomer, unassigned) [Example 3-35]
10 to 100	O=C(OCc1ccccn1)N1CCCC2C1CCN2c1ncnc2[nH]ccc12 (stereo not shown) [Example 3-12, pyridin-2-ylmethyl 1-(7H-pyrrolo[2,3-d]pyrimidin-4-yl)octahydro-4H-pyrrolo[3,2-b]-pyridine-4-carboxylate]
10 to 100	O=S(=O)(c1ccccc1)N1CCC[C@@H]2[C@H]1CCN2c1ncnc2[nH]ccc12 (single isomer, unassigned) [Example 32-6]
10 to 100	O=C(O)c1ccc(CCC(=O)N2CCC[C@@H]3[C@H]2CCN3c2ncnc3[nH]ccc23)cc1 [Example 27, 4-{3-oxo-3-[(3aR,7aR)-1-(7H-pyrrolo[2,3-d]pyrimidin-4-yl)octahydro-4H-pyrrolo[3,2-b]pyridin-4-yl]propyl}benzoic acid]
10 to 100	O=C(OCCc1cc(F)cc(F)c1)N1CCC[C@@H]2[C@H]1CCN2c1ncnc2[nH]ccc12 [Example 3-44, 2-(3,5-difluorophenyl)ethyl (3aR,7aR)-1-(7H-pyrrolo[2,3-d]pyrimidin-4-yl)octahydro-4H-pyrrolo[3,2-b]pyridine-4-carboxylate]
10 to 100	O=C(c1ccccc1)N1CCC[C@@H]2[C@H]1CCN2c1ncnc2[nH]ccc12 [Example 29-34, 4-[(3aR,7aR)-4-(phenylcarbonyl)octahydro-1H-pyrrolo[3,2-b]pryidin-1-yl]-7H-pyrrolo[2,3-d]pyrimidine]
1 to 10	O=C(OCCCc1ccccc1)N1CCC[C@@H]2[C@H]1CCN2c1ncnc2[nH]ccc12 [Example 3-47, 3-phenylpropyl (3aR,7aR)-1-(7H-pyrrolo[2,3-d]pyrimidin-4-yl)octahydro-4H-pyrrolo[3,2-b]pyridine-4-carboxylate]
10 to 100	O=S(=O)(c1ccco1)N1CCC[C@@H]2[C@H]1CCN2c1ncnc2[nH]ccc12 [Example 32-4, 4-[(3aR,7aR)-4-(furan-2-ylsulfonyl)octahydro-1H-pyrrolo[3,2-b]pyridin-1-yl]-7H-pyrrolo[2,3-d]pyrimidine]
10 to 100	O=S(=O)(Cc1ccccc1)N1CCC[C@@H]2[C@H]1CCN2c1ncnc2[nH]ccc12 (single isomer, unassigned) [Example 32-7]
10 to 100	O=C(OCCCc1ccccc1)N1CCCC2C1CCN2c1ncnc2[nH]ccc12 (stereo not shown) [Example 3-7, 3-phenylpropyl 1-(7H-pyrrolo[2,3-d]pyrimidin-4-yl)octahydro-4H-pyrrolo[3,2-b]-pyridine-4-carboxylate]
10 to 100	O=C(OCc1ccccc1)N1CCC2C1CCCN2c1ncnc2[nH]ccc12 [Example 16, (3aS,7aS and 3aR,7aR) benzyl 4-(7H-pyrrolo[2,3-d]pyrimidin-4-yl)octahydro-1H-pyrrolo[3,2-b]pyridine-1-carboxylate]
10 to 100	O=C(c1cccc(Cl)c1)N1CCC[C@@H]2[C@H]1CCN2c1ncnc2[nH]ccc12 [Example 29-18, 4-{(3aR,7aR)-4-[(3-chlorophenyl)carbonyl]octahydro-1H-pyrrolo[3,2-b]pyridin-1-yl}-7H-pyrrolo[2,3-d]pyrimidine]
100 to 1000	Cn1ncc2cc(CC(=O)N3CCC[C@@H]4[C@H]3CCN4c3ncnc4[nH]ccc34)ccc21 [Example 29-59, 4-{(3aR,7aR)-4-[(1-methyl-1H-indazol-5-yl)acetyl]octahydro-1H-pyrrolo[3,2-b]pyridin-1-yl}-7H-pyrrolo[2,3-d]pyrimidine]
100 to 1000	O=C(Cn1cc2ccccc2n1)N1CCC[C@@H]2[C@H]1CCN2c1ncnc2[nH]ccc12 [Example 29-54, 4-[(3aR,7aR)-4-(2H-indazol-2-ylacetyl)octahydro-1H-pyrrolo[3,2-b]pyridin-1-yl]-7H-pyrrolo[2,3-d]pyrimidine]
100 to 1000	CN1CCN(c2ccc(C(=O)N3CCCC4C3CCN4c3ncnc4[nH]ccc34)cc2)CC1 (stereo not shown) [Example 29-6, 4-(4-{[4-(4-methylpiperazin-1-yl)phenyl]carbonyl}octahydro-1H-pyrrolo[3,2-b]pyridin-1-yl)-7H-pyrrolo[2,3-d]pyrimidine]
10 to 100	O=C(OCCN1CCOCC1)N1CCC[C@@H]2[C@H]1CCN2c1ncnc2[nH]ccc12 [Example 3-39, 2-morpholin-4-ylethyl (3aR,7aR)-1-(7H-pyrrolo[2,3-d]pyrimidin-4-yl)octahydro-4H-pyrrolo[3,2-b]pyridine-4-carboxylate]
10 to 100	O=C(OCC1CC1)N1CCC[C@@H]2[C@H]1CCN2c1ncnc2[nH]ccc12 [Example 3-31, cyclopropylmethyl (3aR,7aR)-1-(7H-pyrrolo[2,3-d]pyrimidin-4-yl)octahydro-4H-pyrrolo[3,2-b]pyridine-4-carboxylate]
10 to 100	O=C(c1ccnc2ccccc12)N1CCC[C@@H]2[C@H]1CCN2c1ncnc2[nH]ccc12 [Example 29-61, 4-{[(3aR,7aR)-1-(7H-pyrrolo[2,3-d]pyrimidin-4-yl)octahydro-4H-pyrrolo[3,2-b]pyridin-4-yl]carbonyl}quinoline]

Same assay, conditions: recombinant GST-tagged catalytic domain, 31.8 μM ATP, read-out: Representative IC50 values

IC50 [nM]	Structure (SMILES)
14	O=S(=O)(c1ccco1)N1CCC[C@@H]2[C@H]1CCN2c1ncnc2[nH]ccc12 [Example 32-4, 4-[(3aR,7aR)-4-(furan-2-ylsulfonyl)octahydro-1H-pyrrolo[3,2-b]pyridin-1-yl]-7H-pyrrolo[2,3-d]pyrimidine]
31	O=C(OCc1ccccc1)N1CCC2C1CCCN2c1ncnc2[nH]ccc12 [Example 16, (3aS,7aS and 3aR,7aR) benzyl 4-(7H-pyrrolo[2,3-d]pyrimidin-4-yl)octahydro-1H-pyrrolo[3,2-b]pyridine-1-carboxylate]
